Laboratory results reported in the NIST ThermoML archive (doi:10.1021/je030226s).
Numbers after ± are expanded uncertainties.

What was measured:
[1] = refractive index (Na D-line) (dimensionless); xn = mol fraction of the nth substance listed; conditions: 101.32 kPa, Liquid
[2] = xn = mol fraction of the nth substance listed; conditions: 101.32 kPa, Liquid

CCCCCl [1-chlorobutane] + CCO
Conditions | mass density, 288.15 K [kg/m3] | mass density, 298.15 K [kg/m3] | mass density, 308.15 K [kg/m3] | refractive index, 288.15 K | refractive index, 298.15 K | refractive index, 308.15 K | viscosity, 288.15 K [mPa·s] | viscosity, 298.15 K [mPa·s] | viscosity, 308.15 K [mPa·s]
[1], x2 = 0 | – | – | – | 1.4045 ± 0.0006 | 1.3993 ± 0.0006 | 1.3941 ± 0.0006 | – | – | –
[1], x2 = 0.05 | – | – | – | 1.403 ± 0.0006 | 1.3978 ± 0.0006 | 1.3925 ± 0.0006 | – | – | –
[1], x2 = 0.1 | – | – | – | 1.4016 ± 0.0006 | 1.3964 ± 0.0006 | 1.3912 ± 0.0006 | – | – | –
[1], x2 = 0.2 | – | – | – | 1.3988 ± 0.0006 | 1.3937 ± 0.0006 | 1.3885 ± 0.0006 | – | – | –
[1], x2 = 0.3 | – | – | – | 1.3958 ± 0.0006 | 1.3907 ± 0.0006 | 1.3855 ± 0.0006 | – | – | –
[1], x2 = 0.4 | – | – | – | 1.3925 ± 0.0006 | 1.3875 ± 0.0006 | 1.3823 ± 0.0006 | – | – | –
[1], x2 = 0.5 | – | – | – | 1.389 ± 0.0006 | 1.384 ± 0.0006 | 1.3788 ± 0.0006 | – | – | –
[1], x2 = 0.6 | – | – | – | 1.3851 ± 0.0006 | 1.3802 ± 0.0006 | 1.375 ± 0.0006 | – | – | –
[1], x2 = 0.7 | – | – | – | 1.3807 ± 0.0006 | 1.3759 ± 0.0006 | 1.3708 ± 0.0006 | – | – | –
[1], x2 = 0.8 | – | – | – | 1.3756 ± 0.0006 | 1.3711 ± 0.0006 | 1.3661 ± 0.0006 | – | – | –
[1], x2 = 0.9 | – | – | – | 1.3697 ± 0.0006 | 1.3653 ± 0.0006 | 1.3609 ± 0.0006 | – | – | –
[1], x2 = 0.95 | – | – | – | 1.3665 ± 0.0006 | 1.3624 ± 0.0006 | 1.3581 ± 0.0006 | – | – | –
[2], x2 = 0 | 892.2 ± 0.6 | 881 ± 0.7 | 869.7 ± 0.7 | – | – | – | 0.472 ± 0.009 | 0.423 ± 0.008 | 0.382 ± 0.008
[2], x2 = 0.05 | 888.5 ± 0.6 | 877.3 ± 0.7 | 866 ± 0.7 | – | – | – | 0.475 ± 0.009 | 0.424 ± 0.008 | 0.384 ± 0.008
[2], x2 = 0.1 | 885.3 ± 0.6 | 874.2 ± 0.7 | 862.8 ± 0.7 | – | – | – | 0.479 ± 0.009 | 0.428 ± 0.008 | 0.388 ± 0.008
[2], x2 = 0.2 | 878.7 ± 0.7 | 867.7 ± 0.7 | 856.4 ± 0.7 | – | – | – | 0.5 ± 0.009 | 0.442 ± 0.008 | 0.395 ± 0.008
[2], x2 = 0.3 | 871.7 ± 0.7 | 860.8 ± 0.7 | 849.7 ± 0.8 | – | – | – | 0.529 ± 0.009 | 0.465 ± 0.009 | 0.41 ± 0.008
[2], x2 = 0.4 | 864.1 ± 0.7 | 853.4 ± 0.7 | 842.4 ± 0.8 | – | – | – | 0.566 ± 0.009 | 0.493 ± 0.009 | 0.43 ± 0.008
[2], x2 = 0.5 | 855.7 ± 0.7 | 845.2 ± 0.8 | 834.5 ± 0.8 | – | – | – | 0.63 ± 0.01 | 0.543 ± 0.009 | 0.469 ± 0.009
[2], x2 = 0.6 | 846.4 ± 0.8 | 836.1 ± 0.8 | 825.7 ± 0.8 | – | – | – | 0.708 ± 0.01 | 0.601 ± 0.01 | 0.515 ± 0.009
[2], x2 = 0.7 | 835.8 ± 0.8 | 825.9 ± 0.8 | 815.8 ± 0.9 | – | – | – | 0.807 ± 0.011 | 0.68 ± 0.01 | 0.581 ± 0.009
[2], x2 = 0.8 | 823.9 ± 0.8 | 814.4 ± 0.9 | 804.7 ± 0.9 | – | – | – | 0.932 ± 0.012 | 0.781 ± 0.011 | 0.67 ± 0.01
[2], x2 = 0.9 | 810 ± 0.9 | 800.9 ± 0.9 | 791.7 ± 0.9 | – | – | – | 1.099 ± 0.014 | 0.903 ± 0.012 | 0.765 ± 0.011
[2], x2 = 0.95 | 802.2 ± 0.9 | 793.4 ± 0.9 | 784.5 ± 0.9 | – | – | – | 1.209 ± 0.015 | 0.994 ± 0.013 | 0.839 ± 0.012
